Assay results reported in article PMC7575490 (Investigational New Drugs, 2020).
In brackets after ≈: the same amount, converted by molar mass. Blank lines part the entries; values can stand above or below the compound they belong to.

Tests used:
ErbB2 = test system: ErbB2; set-up: method as in PMID 27902470; conditions: previous pharmacodynamic study; read-out: IC50, ErbB2 inhibition; cited from earlier work
[1] = Part 2 three-period crossover pharmacokinetics / relative bioavailability of A, B, C; format: in vivo, human
Procedure: This was a randomized, positive control, open, single-center study with a three-cycle crossover design in healthy Chinese subjects. […] The wash-out period was 7 days. The method employed for tablet administration was consistent with that in Part 1. […] After the suspension was comsumed by subjects,the container was rinsed with 40, 80, and 80 mL of water in turn and took them down.

EGFR = test system: EGFR; set-up: method as in PMID 27902470; conditions: previous pharmacodynamic study; read-out: IC50, EGFR inhibition; cited from earlier work
[2] = cited from earlier work
[3] = Part 1 single ascending dose pharmacokinetics in healthy Chinese subjects; conditions: for AUC0-t / AUC0-∞ / Cmax / MRT0-t / MRT0-∞ / V/F / t1/2 / λz / Tmax: analyte selatinib; for AUC0-t / AUC0-∞ / Cmax / MRT0-t / MRT0-∞ / V/F / t1/2 / λz: mean ± SD; for Tmax: median (min-max)
Procedure: This was a single-center, randomized, double-blind, placebo-controlled, single ascending study involving healthy Chinese subjects. […] Investigators and subjects were blinded to the group allociations. Treatment identity was concealed by providing drug doses and placebo of identical appearance and in identical packageing. The starting dose was calculated according to the no observed adverse effect level (NOAEL) for animals.[[[25], [26]^] […] The starting dose should be 1/10 of the human NOAEL(i.e., starting dose was 50 or 72 mg). This dose was used as a threshold guide for dose escalations. To minimize risk while providing some inhibitory effects, 50 mg was recommended for use as the starting dose. Dose escalation was designed according to the modified-Fibonacci sequence. A total of 7 dose groups were included. […] Each group consisted of 50% males and females. In addition to the 500 mg group, 2 subjects in each group were administered a single dose of placebo, one for each gender. Only 2 subjects were initially enrolled in all dose groups. Follow-up subjects were enrolled on the premise that the drug was safely tolerated at the administration dose. When all subjects in the current dose group completed the trial and this dose was deemed as tolerable, the next dose group was initiated.
Tablets were administered with 240 mL of tap water at ambient temperature. Consumption of additional water was not permitted within 1 h before and after drug administration. Light meals were served at 4 and 10 h after each dose, with identical standardized diets provided across all dosing periods.
Blood samples were collected into heparinized vacutainer tubes and gently mixed. Thereafter,plasma was separated by centrifugation (3000 rpm at 4 °C for 10 min) within 1 h of sample collection and stored frozen at −80 °C prior to analysis.
A P value<0.05 was considered to indicate statistical significance. […] Further, the logarithm of the dose and the regression coefficient and its 95%CI were calculated.

[4] = Part 1, across single doses 50–500 mg
[5] = Part 1, single 50 mg dose of selatinib (n = 4)
[6] = Part 1, single 100 mg dose of selatinib (n = 10)
[7] = Part 1, single 200 mg dose of selatinib (n = 10)
[8] = Part 1, single 250 mg dose of selatinib (n = 8)
[9] = Part 1, single 300 mg dose of selatinib (n = 10)
[10] = Part 1, single 350 mg dose of selatinib (n = 6)
[11] = Part 1, single 500 mg dose of selatinib (n = 4)
[12] = Part 2, average bioequivalence, logarithmic transformation, single 500 mg dose, suspension B vs tablets A, analyte as labelled
[13] = Part 2, single 500 mg dose of A (selatinib ditosilate tablets), n = 6, analyte as labelled, mean ± SD
[14] = Part 2, single 500 mg dose of B (selatinib ditosilate dry suspension), n = 6, analyte as labelled, mean ± SD

λz ([1]; Part 2, single 500 mg dose of C (lapatinib ditosylate tablets), n = 6, mean ± SD): 5.70 ± 1.26 ×10^−2 /h
AUC0-t ([1]; male, human, in vivo, 500 mg): 5520 ± 2190 ng·h/mL
AUC(0-inf) ([1]; male, human, in vivo, 500 mg): 5540 ± 2200 ng·h/mL
Cmax ([1]; male, human, in vivo, 500 mg): 400 ± 144 ng/mL
Tmax ([1]; male, human, in vivo, 500 mg): 4.0 (2.0–5.0) h
half-life ([1]; male, human, plasma, oral, 500 mg): 12.7 ± 3.05 h
SMILES: CS(=O)(=O)CCNCc1ccc(-c2ccc3ncnc(Nc4ccc(OCc5cccc(F)c5)c(Cl)c4)c3c2)o1 [lapatinib, reference compound]
aqueous solubility [2]: 7 µg/mL (≈ 12 µM)

mean selatinib peak plasma concentration [3, 4]: 69.4 to 494 ng/mL
median peak time [3, 4]: 3.5 to 4.5 h
AUC0-t [3, 5]: 969 ± 161 ng·h/mL
AUC0-∞ [3, 5]: 983 ± 165 ng·h/mL
Cmax [3, 5]: 69.4 ± 18.5 ng/mL
MRT0-t [3, 5]: 15.2 ± 3.1 h
MRT0-∞ [3, 5]: 16.4 ± 3.5 h
V/F [3, 5]: 1193.3 ± 321.8 L
t1/2 [3, 5]: 15.8 ± 2.98 h
λz [3, 5]: 4.49 ± 0.788 ×10^−2 1/h
Tmax [3, 5]: 4.0 (3.0–6.0) h
AUC0-t [3, 6]: 2664 ± 1039 ng·h/mL
AUC0-∞ [3, 6]: 2688 ± 1058 ng·h/mL
Cmax [3, 6]: 178 ± 48.8 ng/mL
MRT0-t [3, 6]: 15.9 ± 2.4 h
MRT0-∞ [3, 6]: 16.7 ± 2.8 h
V/F [3, 6]: 853.2 ± 279.8 L
t1/2 [3, 6]: 14.3 ± 2.58 h
λz [3, 6]: 4.98 ± 0.917 ×10^−2 1/h
Tmax [3, 6]: 4.0 (4.0–6.0) h
AUC0-t [3, 7]: 3708 ± 1465 ng·h/mL
AUC0-∞ [3, 7]: 3735 ± 1480 ng·h/mL
MRT0-t [3, 7]: 16.4 ± 1.7 h
MRT0-∞ [3, 7]: 17.1 ± 1.9 h
V/F [3, 7]: 1247.0 ± 522.4 L
t1/2 [3, 7]: 14.0 ± 1.79 h
λz [3, 7]: 5.01 ± 0.651 ×10^−2 1/h
Tmax [3, 7]: 4.5 (4.0–8.0) h
AUC0-t [3, 8]: 5319 ± 3248 ng·h/mL
AUC0-∞ [3, 8]: 5368 ± 3274 ng·h/mL
Cmax [3, 8]: 329 ± 211 ng/mL
MRT0-t [3, 8]: 17.1 ± 1.5 h
MRT0-∞ [3, 8]: 18.0 ± 1.8 h
V/F [3, 8]: 1393.7 ± 861.8 L
t1/2 [3, 8]: 15.3 ± 1.67 h
λz [3, 8]: 4.58 ± 0.495 ×10^−2 1/h
Tmax [3, 8]: 4.0 (4.0–5.0) h
AUC0-t [3, 9]: 5904 ± 2428 ng·h/mL
AUC0-∞ [3, 9]: 5958 ± 2461 ng·h/mL
Cmax [3, 9]: 352 ± 147 ng/mL
MRT0-t [3, 9]: 17.4 ± 2.3 h
MRT0-∞ [3, 9]: 18.3 ± 2.6 h
V/F [3, 9]: 1380.6 ± 1006.1 L
t1/2 [3, 9]: 15.1 ± 1.09 h
λz [3, 9]: 4.60 ± 0.334 ×10^−2 1/h
Tmax [3, 9]: 4.5 (4.0–6.0) h
AUC0-t [3, 10]: 7072 ± 2001 ng·h/mL
AUC0-∞ [3, 10]: 7115 ± 1995 ng·h/mL
Cmax [3, 10]: 494 ± 156 ng/mL
MRT0-t [3, 10]: 16.0 ± 2.6 h
MRT0-∞ [3, 10]: 16.7 ± 3.0 h
V/F [3, 10]: 1059.1 ± 425.1 L
t1/2 [3, 10]: 13.8 ± 2.19 h
λz [3, 10]: 5.14 ± 0.765 ×10^−2 1/h
Tmax [3, 10]: 4.5 (2.0–5.0) h
AUC0-t [3, 11]: 7142 ± 2463 ng·h/mL
AUC0-∞ [3, 11]: 7191 ± 2482 ng·h/mL
Cmax [3, 11]: 486 ± 144 ng/mL
MRT0-t [3, 11]: 15.5 ± 0.5 h
MRT0-∞ [3, 11]: 16.2 ± 0.5 h
V/F [3, 11]: 1650.8 ± 652.2 L
t1/2 [3, 11]: 14.8 ± 0.152 h
λz [3, 11]: 4.68 ± 0.0482 ×10^−2 1/h
Tmax [3, 11]: 3.5 (2.0–5.0) h
linearity of pharmacokinetics ([3]; dose range of 50–500 mg): conformed with linear pharmacokinetics
B/A% of AUC0-t [1, 12]: 101.06%
B/A% of AUC0-∞ [1, 12]: 101.09%
B/A% of Cmax [1, 12]: 94.53%
AUC0-t [1, 13]: 9280 ± 3800 ng·h/mL
AUC0-∞ [1, 13]: 9400 ± 3910 ng·h/mL
Cmax [1, 13]: 601 ± 242 ng/mL
MRT0-∞ [1, 13]: 19.2 ± 3.16 h
t1/2 [1, 13]: 15.6 ± 2.47 h
λz [1, 13]: 4.52 ± 0.682 ×10^−2 /h
Tmax ([1]; Part 2, single 500 mg dose of A (selatinib ditosilate tablets), n = 6, analyte as labelled, median (min-max)): 5.0 (4.0–6.0) h
V/F ([1]; Part 2, single 500 mg dose of A (selatinib ditosilate tablets), n = 6, mean ± SD): 1370 ± 586 L
AUC0-t [1, 14]: 8780 ± 1350 ng·h/mL
AUC0-∞ [1, 14]: 8890 ± 1410 ng·h/mL
Cmax [1, 14]: 556 ± 191 ng/mL
MRT0-∞ [1, 14]: 18.9 ± 2.87 h
t1/2 [1, 14]: 16.2 ± 1.87 h
λz [1, 14]: 4.32 ± 0.453 ×10^−2 /h
Tmax ([1]; Part 2, single 500 mg dose of B (selatinib ditosilate dry suspension), n = 6, analyte as labelled, median (min-max)): 4.5 (3.0–6.0) h
V/F ([1]; Part 2, single 500 mg dose of B (selatinib ditosilate dry suspension), n = 6, mean ± SD): 1330 ± 192 L
SMILES: C[S+]([O-])CCNCc1ccc(-c2ccc3ncnc(Nc4ccc(OCc5cccc(F)c5)c(Cl)c4)c3c2)o1 (stereo not shown) [selatinib]
